The compounds below were run on Alternaria solani (assay: Alternaria Test (tomato)/protective). Conditions: tomato plants, protective spray, 750 g/ha, evaluation 7 days after inoculation; 100% = no infection.
Assay type: in vivo
Experimental: Alternaria Test (tomato)/protective Solvent: 49 parts by weight of N,N-dimethylformamide Emulsifier: 1 part by weight of alkylaryl polyglycol ether To produce a suitable preparation of active compound, 1 part by weight of active compound is mixed with the stated amounts of solvent and emulsifier, and the concentrate is diluted with water to the desired concentration. […] The plants then remain at 96% relative atmospheric humidity and at a temperature of 20° C.
Work on `Fc1cc(F)c(-c2c(Cl)nc3ncnn3c2N2CCCCO2)c(F)c1` [drawing 101] yielded an Efficacy in % of 100%.
Work on `Fc1ccc(-c2c(Cl)nc3ncnn3c2N2CCCCO2)c(Cl)c1` [drawing 102] yielded an Efficacy in % of 100%.
Compound `Fc1cc(F)c(-c2c(Cl)nc3ncnn3c2N2Cc3ccccc3CO2)c(F)c1` [drawing 100] has an Efficacy in % of 100%.
`Fc1cc(F)c(-c2c(Cl)nc3ncnn3c2N2CCC=N2)c(F)c1` [drawing 103] gave an Efficacy in % of 95%.

Each compound was assayed on Venturia inaequalis (assay: Venturia Test (apple)/protective). Conditions: 240 h, apple plants, protective spray, evaluation 10 days after inoculation, 100% = no infection, read-out: Efficacy in %.
Assay type: in vivo
Experimental: Venturia Test (apple)/protective Solvents: 24.5 parts by weight of acetone • 24.5 parts by weight of dimethylacetamide Emulsifier: 1.0 parts by weight alkylaryl polyglycol ether To produce a suitable preparation of active compound, 1 part by weight of active compound is mixed with the stated amounts of solvent and emulsifier, and the concentrate is diluted with water to the desired concentration. To test for protective activity, young plants are sprayed with the preparation of active compound at the stated application rate. […] The plants are then placed in a greenhouse at about 21° C. and a relative atmospheric humidity of about 90%.
For `Fc1cccc(Cl)c1-c1c(Cl)nc2ncnn2c1N1CCCCN1` [drawing 49], the pest or weed control at 100 g/ha was 100%.
In the case of `Fc1cc(F)c(-c2c(Cl)nc3ncnn3c2N2Cc3ccccc3CO2)c(F)c1` [drawing 45], the pest or weed control at 100 g/ha is reported as 100%.
`Fc1cc(F)c(-c2c(Cl)nc3ncnn3c2N2OC3CCC2C3)c(C(F)(F)F)c1` (stereo not shown) [drawing 53] showed a pest or weed control at 100 g/ha of 100%.
Compound `Fc1ccc(-c2c(Cl)nc3ncnn3c2N2CCCCO2)c(F)c1` [drawing 48] has a pest or weed control at 100 g/ha of 96%.
Work on `Fc1cccc(F)c1-c1c(Cl)nc2ncnn2c1N1CCCCO1` [drawing 57] yielded a pest or weed control at 100 g/ha of 100%.
In the case of `Fc1cc(F)c(-c2c(Br)nc3ncnn3c2N2CCCCN2)c(F)c1` [drawing 71], the pest or weed control at 100 g/ha is reported as 93%.
Work on `Fc1cc(C(F)(F)F)cc(F)c1-c1c(Cl)nc2ncnn2c1N1CCCCN1` [drawing 70] yielded a pest or weed control at 100 g/ha of 100%.
`CC1CCCON1c1c(-c2ccccc2Cl)c(Cl)nc2ncnn12` (stereo not shown) [drawing 61] gave a pest or weed control at 100 g/ha of 99%.
Work on `Fc1cc(F)c(-c2c(Cl)nc3ncnn3c2N2NC3CCC2C3)c(F)c1` (stereo not shown) [drawing 65] yielded a pest or weed control at 100 g/ha of 93%.
Compound `Clc1ccc(-c2c(Cl)nc3ncnn3c2N2CCCCN2)c(Cl)c1` [drawing 69] has a pest or weed control at 100 g/ha of 95%.
`CC1CCON1c1c(-c2c(F)cc(F)cc2F)c(Cl)nc2ncnn12` (stereo not shown) [drawing 55] gave a pest or weed control at 100 g/ha of 100%.
Work on `Fc1cc(F)c(-c2c(Cl)nc3ncnn3c2N2OC3CCC2C3)c(F)c1` (stereo not shown) [drawing 51] yielded a pest or weed control at 100 g/ha of 100%.
Work on `CC1CCCON1c1c(-c2c(F)cc(F)cc2F)c(Cl)nc2ncnn12` (stereo not shown) [drawing 54] yielded a pest or weed control at 100 g/ha of 100%.
`Fc1ccc(-c2c(Cl)nc3ncnn3c2N2OC3CCC2C3)c(F)c1` (stereo not shown) [drawing 60] showed a pest or weed control at 100 g/ha of 100%.
Work on `CC1CCON1c1c(-c2c(F)cccc2Cl)c(Cl)nc2ncnn12` (stereo not shown) [drawing 59] yielded a pest or weed control at 100 g/ha of 100%.
`Fc1cc(F)c(-c2c(Cl)nc3ncnn3c2N2CCC=N2)c(F)c1` [drawing 63] gave a pest or weed control at 100 g/ha of 96%.
For `CC1C=CCN(c2c(-c3c(F)cc(F)cc3F)c(Cl)nc3ncnn23)O1` (stereo not shown) [drawing 50], the pest or weed control at 100 g/ha was 100%.
`Fc1cccc(Cl)c1-c1c(Cl)nc2ncnn2c1N1OC2CCC1C2` (stereo not shown) [drawing 58] was tested, and the pest or weed control at 100 g/ha was 100%.
In the case of `Fc1cccc(Cl)c1-c1c(Cl)nc2ncnn2c1N1NC2CCC1C2` (stereo not shown) [drawing 66], the pest or weed control at 100 g/ha is reported as 100%.
`Fc1cc(F)c(-c2c(Cl)nc3ncnn3c2N2CCCCN2)c(C(F)(F)F)c1` [drawing 68] gave a pest or weed control at 100 g/ha of 100%.
For `Fc1ccc(-c2c(Cl)nc3ncnn3c2N2OC3CCC2C3)c(Cl)c1` (stereo not shown) [drawing 62], the pest or weed control at 100 g/ha was 100%.
Compound `Fc1cc(F)c(-c2c(Cl)nc3ncnn3c2N2CCCCO2)c(F)c1` [drawing 46] has a pest or weed control at 100 g/ha of 100%.
With `Fc1ccc(-c2c(Cl)nc3ncnn3c2N2CCCCO2)c(Cl)c1` [drawing 47] the pest or weed control at 100 g/ha was 100%.
Work on `Clc1ccccc1-c1c(Cl)nc2ncnn2c1N1OC2CCC1C2` (stereo not shown) [drawing 56] yielded a pest or weed control at 100 g/ha of 99%.
`Fc1cccc(F)c1-c1c(Cl)nc2ncnn2c1N1CCCCN1` [drawing 67] was tested, and the pest or weed control at 100 g/ha was 96%.
Compound `Clc1cccc(Cl)c1-c1c(Cl)nc2ncnn2c1N1CCCCN1` [drawing 64] has a pest or weed control at 100 g/ha of 99%.

These compounds were tested on Pyricularia oryzae (assay: not given). Conditions: rice plants, protective spray, 500 g/ha, evaluation 7 days after inoculation; 100% = no infection.
Assay type: in vivo
For `Fc1cccc(Cl)c1-c1c(Cl)nc2ncnn2c1N1CCCCN1` [drawing 106], the Efficacy in % was 100%.
In the case of `Fc1ccc(-c2c(Cl)nc3ncnn3c2N2CCCCO2)c(F)c1` [drawing 105], the Efficacy in % is reported as 100%.
Work on `Fc1ccc(-c2c(Cl)nc3ncnn3c2N2CCCCO2)c(Cl)c1` [drawing 104] yielded an Efficacy in % of 100%.

Each compound was assayed on Botrytis cinerea (assay: Botrytis Test (bean)/protective). Conditions: 48 h, bean plants, protective spray, evaluation 2 days after inoculation, 100% = no infection, read-out: Efficacy in %.
Assay type: in vivo
Experimental: Botrytis Test (bean)/protective
Solvents: 24.5 parts by weight of acetone • 24.5 parts by of dimethylacetamide
Emulsifier: 1.0 part by weight of alkylaryl polyglycol ether
To produce a suitable preparation of active compound, 1 part by weight of active compound is mixed with the stated amounts of solvent and emulsifier, and the concentrate is diluted with water to the desired concentration.
To test for protective activity, young plants are sprayed with the preparation of active compound at the stated application rate. After the spray coating has dried on, 2 small pieces of agar colonized by Botrytis cinerea are placed onto each leaf. The inoculated plants are placed in a dark chamber at about 20° C. and 100% relative atmospheric humidity.
2 days after the inoculation the size of the infected areas on the leaves is evaluated. 0% means an efficacy which corresponds to that of the control, whereas an efficacy of 100% means that no infection is observed.
For `Fc1cc(F)c(-c2c(Cl)nc3ncnn3c2N2CC=CCO2)c(F)c1`, the pest or weed control at 500 g/ha was 100%.
For `Clc1cccc(Cl)c1-c1c(Cl)nc2ncnn2c1N1CCCCN1` [drawing 92], the pest or weed control at 500 g/ha was 99%.
With `Clc1ccc(-c2c(Cl)nc3ncnn3c2N2CCCCN2)c(Cl)c1` [drawing 97] the pest or weed control at 500 g/ha was 95%.
`Clc1ccccc1-c1c(Cl)nc2ncnn2c1N1OC2CCC1C2` (stereo not shown) [drawing 84] was tested, and the pest or weed control at 500 g/ha was 93%.
In the case of `Fc1cccc(F)c1-c1c(Cl)nc2ncnn2c1N1CCCCO1` [drawing 85], the pest or weed control at 500 g/ha is reported as 100%.
In the case of `Fc1cc(F)c(-c2c(Cl)nc3ncnn3c2N2NC3CCC2C3)c(F)c1` (stereo not shown) [drawing 93], the pest or weed control at 500 g/ha is reported as 96%.
Work on `Fc1ccc(-c2c(Cl)nc3ncnn3c2N2CCCCO2)c(Cl)c1` [drawing 74] yielded a pest or weed control at 500 g/ha of 100%.
`Fc1cccc(Cl)c1-c1c(Cl)nc2ncnn2c1N1NC2CCC1C2` (stereo not shown) [drawing 94] was tested, and the pest or weed control at 500 g/ha was 100%.
Compound `Fc1cccc(Cl)c1-c1c(Cl)nc2ncnn2c1N1OC2CCC1C2` (stereo not shown) [drawing 86] has a pest or weed control at 500 g/ha of 100%.
In the case of `CC1CCON1c1c(-c2c(F)cc(F)cc2F)c(Cl)nc2ncnn12` (stereo not shown) [drawing 83], the pest or weed control at 500 g/ha is reported as 100%.
For `Fc1cc(F)c(-c2c(Cl)nc3ncnn3c2N2CCCCN2)c(F)c1` [drawing 77], the pest or weed control at 500 g/ha was 100%.
Work on `Fc1cc(F)c(-c2c(Cl)nc3ncnn3c2N2OC3CCC2C3)c(C(F)(F)F)c1` (stereo not shown) [drawing 78] yielded a pest or weed control at 500 g/ha of 100%.
Work on `Fc1cc(F)c(-c2c(Cl)nc3ncnn3c2N2Cc3ccccc3CO2)c(F)c1` [drawing 72] yielded a pest or weed control at 500 g/ha of 100%.
In the case of `Fc1ccc(-c2c(Cl)nc3ncnn3c2N2CCCCO2)c(F)c1` [drawing 75], the pest or weed control at 500 g/ha is reported as 100%.
`Fc1ccc(-c2c(Cl)nc3ncnn3c2N2OC3CCC2C3)c(Cl)c1` (stereo not shown) [drawing 90] showed a pest or weed control at 500 g/ha of 100%.
Work on `Fc1cc(F)c(-c2c(Br)nc3ncnn3c2N2CCCCN2)c(F)c1` [drawing 99] yielded a pest or weed control at 500 g/ha of 100%.
`CC1CCCON1c1c(-c2ccccc2Cl)c(Cl)nc2ncnn12` (stereo not shown) [drawing 89] showed a pest or weed control at 500 g/ha of 99%.
In the case of `Fc1cc(F)c(-c2c(Cl)nc3ncnn3c2N2CCC=N2)c(F)c1` [drawing 91], the pest or weed control at 500 g/ha is reported as 100%.
In the case of `Fc1cc(F)c(-c2c(Cl)nc3ncnn3c2N2CCCCO2)c(F)c1` [drawing 73], the pest or weed control at 500 g/ha is reported as 100%.
`Fc1ccc(-c2c(Cl)nc3ncnn3c2N2OC3CCC2C3)c(F)c1` (stereo not shown) [drawing 88] gave a pest or weed control at 500 g/ha of 99%.
Compound `Fc1cccc(Cl)c1-c1c(Cl)nc2ncnn2c1N1CCCCN1` [drawing 76] has a pest or weed control at 500 g/ha of 100%.
In the case of `CC1CCON1c1c(-c2c(F)cccc2Cl)c(Cl)nc2ncnn12` (stereo not shown) [drawing 87], the pest or weed control at 500 g/ha is reported as 100%.
`Fc1cc(F)c(-c2c(Cl)nc3ncnn3c2N2OC3CCC2C3)c(F)c1` (stereo not shown) [drawing 81] showed a pest or weed control at 500 g/ha of 98%.
In the case of `Fc1cc(C(F)(F)F)cc(F)c1-c1c(Cl)nc2ncnn2c1N1CCCCN1` [drawing 98], the pest or weed control at 500 g/ha is reported as 95%.
Work on `Fc1cc(F)c(-c2c(Cl)nc3ncnn3c2N2CCCCN2)c(C(F)(F)F)c1` [drawing 96] yielded a pest or weed control at 500 g/ha of 100%.
`CC1C=CCN(c2c(-c3c(F)cc(F)cc3F)c(Cl)nc3ncnn23)O1` (stereo not shown) [drawing 80] gave a pest or weed control at 500 g/ha of 93%.
With `CC1CCCON1c1c(-c2c(F)cc(F)cc2F)c(Cl)nc2ncnn12` (stereo not shown) [drawing 82] the pest or weed control at 500 g/ha was 100%.
`Fc1cccc(F)c1-c1c(Cl)nc2ncnn2c1N1CCCCN1` [drawing 95] gave a pest or weed control at 500 g/ha of 95%.

— patent publication US20050234076A1, “Triazolopyrimidines” (priority 2002, published 2005)
